According to article PMC10466253, “Derivatives of 9-phosphorylated acridine as butyrylcholinesterase inhibitors with antioxidant activity and the ability to inhibit β-amyloid self-aggregation: potential therapeutic agents for Alzheimer’s disease” (Frontiers in Pharmacology, 2023):
Marks after values point to notes of the source that are not given here.

Experiments:
[1] = ABTS radical cation scavenging activity assay; settings: for ABTS•+-scavenging activity, TEAC: Trolox equivalent antioxidant capacity, ratio of slopes compound/Trolox; for IC50: concentration for 50% reduction of ABTS radical cation
Procedure: Radical scavenging activity of the compounds was evaluated using the ABTS radical cation (2,2ʹ-azinobis-(3-ethylbenzothiazoline-6-sulfonic acid), ABTS^•+) decolorization assay ([Re et al., 1999]), with minor modifications described in detail in [Makhaeva et al. (2019a)]. To prepare the solution of ABTS^•+, equal volumes of aqueous solutions of 7 mM ABTS and 2.45 mM potassium persulfate were incubated for 12–16 h at room temperature in the dark. Radical scavenging capacity of the compounds was determined by mixing 10 μL of compound solution in DMSO with 240 μL of ABTS^•+ working solution in ethanol (100 μM final concentration). The reduction in ABTS^•+ absorbance was measured spectrophotometrically at 734 nm using a xMark UV/VIS microplate spectrophotometer (Bio-Rad, Hercules, CA, United States) for 1 h with an interval of 10 min compared to a standard synthetic antioxidant Trolox (6-hydroxy-2,5,7,8-tetramethylchroman-2-carboxylic acid). Ascorbic acid was used as a positive control.
The antioxidant activity of the compounds was reported as Trolox equivalent antioxidant capacity (TEAC values) as the ratio of the slopes of the concentration−response curves, test compound/Trolox. The IC50 values for the test compounds were also determined.

[2] = FRAP (ferric reducing antioxidant power) assay; settings: Trolox equivalents; 1 h, 37°C, pH 3.6
Procedure: The ferric reducing antioxidant power (FRAP) assay proposed by [Benzie and Strain (1996)]; [Benzie and Strain (1999)] modified to be performed in 96-well microplates as described in detail in [Makhaeva et al. (2020)] was used. 10 μL (0.5 mM) of the tested or reference compounds were mixed with 240 µL of FRAP reagent (2.5 mL of 10 mM TPTZ (2,4,6-tris(2-pyridyl)-s-triazine) solution in 40 mM HCl, 2.5 mL of 20 mM FeCl3 in distilled water and 25 mL of 0.3 M acetate buffer pH 3.6); the absorbance of the mixture was measured spectrophotometrically (λ = 593 nm) with a FLUOStar OPTIMA microplate reader at 600 nm after a 1 h incubation at 37°C against a blank. Trolox was used as a reference compound. The results were expressed as Trolox equivalents (TE)—the ratio of the concentrations of Trolox and the test compound resulting in the same effect on ferric reducing activity.

Porcine liver CES = assay: In vitro inhibition of CES activity (spectrophotometric, 4-NPA substrate); type: biochemical; settings: compound concentration 20 µM; mean ± SEM, n = 3
Procedure: (§1) Enzymes, substrates, and reference compounds were from Sigma-Aldrich (St. Louis, MO, United States). […] Experimental conditions: K,Na-phosphate buffer (100 mM), 25°С, pH 7.5 for AChE and BChE and pH 8.0 for CES assay. Measurements were carried out on a BioRad Benchmark Plus microplate spectrophotometer (Hercules, CA, United States).
(§2) Test compounds were dissolved in DMSO; final concentration of solvent in the incubation mixture was 2% (v/v).

Human erythrocyte AChE = target: T1, Human erythrocyte AChE (Homo sapiens, UniProt P22303); assay: In vitro inhibition of AChE activity (spectrophotometric, ATCh iodide substrate); type: biochemical; settings: for Human erythrocyte AChE, (%) inhibition: compound concentration 20 µM, mean ± SEM, n = 3; for inhibition at 20 µM: read-out: Human erythrocyte AChE, (%) inhibition
T1 construct: Human erythrocyte AChE, (%); purchased Sigma-Aldrich; host or cells: human erythrocytes
T1 sequence (P22303 32-617 isoform P22303-2 limits assumed): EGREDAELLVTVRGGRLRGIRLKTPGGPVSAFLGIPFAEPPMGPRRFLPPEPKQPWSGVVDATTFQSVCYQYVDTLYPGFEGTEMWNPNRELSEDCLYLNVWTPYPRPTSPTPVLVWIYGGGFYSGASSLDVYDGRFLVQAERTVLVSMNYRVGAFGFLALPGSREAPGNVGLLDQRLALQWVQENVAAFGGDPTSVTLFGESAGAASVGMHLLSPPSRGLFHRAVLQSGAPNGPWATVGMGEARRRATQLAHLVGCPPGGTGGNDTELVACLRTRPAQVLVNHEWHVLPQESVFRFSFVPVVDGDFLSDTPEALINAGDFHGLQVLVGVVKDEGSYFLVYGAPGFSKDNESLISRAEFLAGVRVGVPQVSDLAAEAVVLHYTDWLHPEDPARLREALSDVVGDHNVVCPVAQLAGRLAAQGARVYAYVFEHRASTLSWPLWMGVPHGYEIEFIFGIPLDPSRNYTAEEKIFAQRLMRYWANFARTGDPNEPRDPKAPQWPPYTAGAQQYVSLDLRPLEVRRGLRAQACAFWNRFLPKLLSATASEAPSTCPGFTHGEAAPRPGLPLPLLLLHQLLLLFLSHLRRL
Procedure: as §1, §2

Equine serum BChE = target: T2, Equine serum BChE (Equus caballus, UniProt P81908); assay: In vitro inhibition of BChE activity (spectrophotometric, BTCh iodide substrate); type: biochemical; settings: for Equine serum BChE, (%) inhibition: compound concentration 20 µM, mean ± SEM, n = 3; for inhibition at 20 µM: read-out: Equine serum BChE, (%) inhibition
T2 construct: Equine serum BChE, (%); purchased Sigma-Aldrich; host or cells: equine serum
T2 sequence (P81908 whole entry): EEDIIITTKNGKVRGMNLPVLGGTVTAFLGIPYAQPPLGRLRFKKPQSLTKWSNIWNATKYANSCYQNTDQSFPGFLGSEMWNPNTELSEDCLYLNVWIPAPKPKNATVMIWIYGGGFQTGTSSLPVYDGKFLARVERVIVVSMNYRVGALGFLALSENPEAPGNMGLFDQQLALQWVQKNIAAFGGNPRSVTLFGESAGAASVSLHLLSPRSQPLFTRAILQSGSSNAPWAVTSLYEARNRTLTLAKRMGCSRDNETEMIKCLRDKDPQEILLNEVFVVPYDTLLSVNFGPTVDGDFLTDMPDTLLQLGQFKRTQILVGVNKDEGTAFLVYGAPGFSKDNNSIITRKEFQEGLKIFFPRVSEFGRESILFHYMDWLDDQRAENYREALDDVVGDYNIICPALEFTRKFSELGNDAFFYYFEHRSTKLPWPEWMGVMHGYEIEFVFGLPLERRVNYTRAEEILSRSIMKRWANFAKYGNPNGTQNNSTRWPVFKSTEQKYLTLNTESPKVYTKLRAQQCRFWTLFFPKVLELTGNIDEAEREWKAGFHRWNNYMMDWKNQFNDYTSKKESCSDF
Procedure: as §1, §2

β-amyloid (1-42) (Aβ42) = target: T3, β-amyloid (1-42) (Aβ42) (Homo sapiens, UniProt P05067); assay: Inhibition of Aβ42 self-aggregation, thioflavin T fluorescence method; type: biochemical; settings: Aβ42 50 µM, compound 100 µM, 24 h, 37°C; mean ± SEM, n = 3
T3 construct: purchased AnaSpec Inc
T3 sequence (P05067 672-713 limits assumed): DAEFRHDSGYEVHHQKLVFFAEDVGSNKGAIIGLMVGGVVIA
Procedure: Lyophilized HFIP-pretreated Aβ42 (AnaSpec Inc., 0.5 mg) was dissolved in DMSO to obtain a stable 500 μM solution. […] Myricetin and Propidium iodide in the same concentration were used as references.
Therefore, the decrease in ThT fluorescence in the presence of the studied compound correlates with its activity to inhibit the formation of amyloid aggregates.

BChE = target: T4, BChE (Equus caballus, UniProt P81908); assay: Kinetic studies of BChE inhibition (Lineweaver-Burk); type: biochemical, equine
T4 construct: Equine serum BChE, (%); purchased Sigma-Aldrich; host or cells: equine serum
T4 sequence (P81908 whole entry): as the sequence (P81908 whole entry) above
Procedure: Mechanism of BChE inhibition was assessed by a detailed analysis of enzyme kinetics with three increasing concentrations of inhibitor and six substrate concentrations as described in detail in [Makhaeva et al. (2017)].
Lineweaver-Burk plots-double reciprocal representations of Michaelis-Menten parameters-were used to assess the type of inhibition.

Row | SMILES | ABTS•+-scavenging activity, TEAC [1] | IC50 [1] | FRAP Fe3+-reducing activity, TE [2] | Porcine liver CES, (%) inhibition (Porcine liver CES) | Inhibition of Aβ42 self-aggregation, (%) (β-amyloid (1-42) (Aβ42)) | inhibition at 20 µM (Human erythrocyte AChE) | inhibition at 20 µM (Equine serum BChE) | inhibition at 100 µM (β-amyloid (1-42) (Aβ42)) | IC50 (Equine serum BChE) | further results
1 | O=C1O[C@H]([C@@H](O)CO)C(O)=C1O [Ascorbic acid, reference compound] | 0.97 ± 0.04 | 22.4 ± 2.2 µM | 1.23 ± 0.11 TE | – | – | – | – | – | – | –
2 | O=[N+]([O-])c1ccc(OP(=O)(O)Oc2ccc([N+](=O)[O-])cc2)cc1 [BNPP, reference compound] | – | – | – | 99.1 ± 0.93 ^e % | – | – | – | – | – | –
3 | COP(=O)(OC)C1c2ccccc2Nc2ccccc21 [Compound 1a] | 0.99 ± 0.04 | 21.3 ± 1.4 µM | 1.60 ± 0.01 TE | n.а | 4.9 ± 0.4% | – | – | – | – | Human erythrocyte AChE, (%) inhibition (Human erythrocyte AChE): 5.3 ± 1.3%; Equine serum BChE, (%) inhibition (Equine serum BChE): 21.3 ± 1.7%
4 | CCOP(=O)(OCC)C1c2ccccc2Nc2ccccc21 [Compound 1b] | 0.97 ± 0.03 | 20.8 ± 1.3 µM | 1.15 ± 0.01 TE | n.а | – | 4.4 ± 1.1% | 16.9 ± 1.5% | 8.1 ± 0.8% | – | –
5 | O=P(Oc1ccccc1)(Oc1ccccc1)C1c2ccccc2Nc2ccccc21 [Compound 1c] | 1.13 ± 0.05 | 17.8 ± 1.1 µM | 1.13 ± 0.02 TE | 21.6 ± 1.7% | – | 6.3 ± 0.9% | – | 19.8 ± 1.5% | 48 ± 3.1 µM | –
6 | O=P(OCc1ccccc1)(OCc1ccccc1)C1c2ccccc2Nc2ccccc21 [Compound 1d, 9-bis(benzyloxy)phosphoryl-9,10-dihydroacridine] | 0.97 ± 0.04 | 20.8 ± 1.3 µM | 0.97 ± 0.06 TE | 18.7 ± 1.4% | – | 7.6 ± 1.2% | – | 58.9 ± 4.7% | 2.9 ± 0.23 µM | type of BChE inhibition (BChE; Lineweaver-Burk analysis): mixed type of inhibition; Ki (BChE; steady state inhibition, read-out: competitive component (Ki) of BChE inhibition): 2.22 ± 0.19 µM
7 | O=P(CCc1ccccc1)(CCc1ccccc1)C1c2ccccc2Nc2ccccc21 [Compound 1e] | 0.9 ± 0.03 | 21.8 ± 0.9 µM | 1.10 ± 0.01 TE | 22.2 ± 1.7% | – | 8.8 ± 2% | – | 46.9 ± 4.2% | 3.22 ± 0.25 µM | time to reach the maximum degree of ABTS•+ radical binding [1]: 30 min
8 | O=P(CCc1ccc(Cl)cc1)(CCc1ccc(Cl)cc1)C1c2ccccc2Nc2ccccc21 [Compound 1f] | 0.80 ± 0.03 | 22.6 ± 0.7 µM | 0.81 ± 0.02 TE | – | – | 6.4 ± 1% | – | 34.1 ± 2.7% | 21.7 ± 1.7 µM | time to reach the maximum degree of ABTS•+ radical binding [1]: 30 min
9 | COP(=O)(OC)c1c2ccccc2nc2ccccc12 [Compound 2a] | – | – | 0.08 ± 0.02 TE | 4.3 ± 1.1% | 4.9 ± 0.4% | – | – | – | – | Human erythrocyte AChE, (%) inhibition (Human erythrocyte AChE): 9.1 ± 1.2%; Equine serum BChE, (%) inhibition (Equine serum BChE): 9.0 ± 1.4%
10 | CCOP(=O)(OCC)c1c2ccccc2nc2ccccc12 [Compound 2b] | – | – | 0.07 ± 0.01 TE | 10.5 ± 1.3% | n.а | 10.4 ± 1.2% | 10.8 ± 1.5% | – | – | –
11 | O=P(Oc1ccccc1)(Oc1ccccc1)c1c2ccccc2nc2ccccc12 [Compound 2c] | – | – | – | 27.6 ± 2.2% | – | 12.4 ± 1.4% | 32.7 ± 2.6% | 3.6 ± 0.3% | – | –
12 | O=P(OCc1ccccc1)(OCc1ccccc1)c1c2ccccc2nc2ccccc12 [Compound 2d] | – | – | – | 20.4 ± 1.8% | n.а | 10.8 ± 1.5% | – | – | 6.9 ± 0.55 µM | times less effective BChE inhibitor than the corresponding dihydroacridine (1d) (Equine serum BChE; ratio of BChE IC50 values): 2.4
13 | O=P(CCc1ccccc1)(CCc1ccccc1)c1c2ccccc2nc2ccccc12 [Compound 2e] | – | – | – | 13.5 ± 1.7% | n.а | 10.4 ± 1.3% | 25.7 ± 2% | – | – | –
14 | O=P(CCc1ccc(Cl)cc1)(CCc1ccc(Cl)cc1)c1c2ccccc2nc2ccccc12 [Compound 2f] | – | – | – | 18.4 ± 1.4% | – | 15.2 ± 1.3% | 20.4 ± 1.6% | 11.2 ± 0.8% | – | –
15 | CC[N+](C)(CC)CCC[n+]1c(-c2ccccc2)c2cc(N)ccc2c2ccc(N)cc21.[I-].[I-] [Propidium iodide, reference compound] | – | – | – | – | 90.7 ± 7.1% | – | – | – | – | –
16 | Cc1c(C)c2c(c(C)c1O)CCC(C)(C(=O)O)O2 (centres unmarked) [Trolox, 6-hydroxy-2,5,7,8-tetramethylchroman-2-carboxylic acid, reference compound] | 1.0 | 20.1 ± 0.7 µM | 1.0 TE | – | – | – | – | – | – | –
